Measured values: US20240210412A1, “SULFONYL-TRIAZOLE COMPOUNDS USEFUL AS LIGANDS AND INHIBITORS OF PROSTAGLANDIN REDUCTASE 2” (University of Virginia Patent Foundation, priority 2021, published 2024)

How the values were obtained:
Assay in all cases: SILAC LC-MS ABPP
Format in all cases: cell-based
Details in all cases: 25 μM 2 h, live DM93 cells
P63241 = biological target: T1, P63241 (Homo sapiens, UniProt P63241)
T1 construct: performing SuTEx compound screening directly in cells; endogenous in cells; host or cells: DM93 cells (SILAC)
Procedure, shortened: (§1)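 Quantification uses SILAC ratios from LC-MS/MS of probe-modified tyrosine peptides. DM93 melanoma cells: heavy treated with 25 μM SuTEx ligand, light with DMSO (2 h, 37 °C), followed by HHS-475 probe at 100 μM for 2 h.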

Q01082 = biological target: T2, Q01082 (Homo sapiens, UniProt Q01082)
T2 construct: performing SuTEx compound screening directly in cells; endogenous in cells; host or cells: DM93 cells (SILAC)
Procedure, shortened: as §1

Q13033 = biological target: T3, Q13033 (Homo sapiens, UniProt Q13033)
T3 construct: performing SuTEx compound screening directly in cells; endogenous in cells; host or cells: DM93 cells (SILAC), soluble fraction
Procedure, shortened: as §1

Q13151 = biological target: T4, Q13151 (Homo sapiens, UniProt Q13151)
T4 construct: performing SuTEx compound screening directly in cells; endogenous in cells; host or cells: DM93 cells (SILAC), soluble fraction
Procedure, shortened: as §1

Q92900 = biological target: T5, Q92900 (Homo sapiens, UniProt Q92900)
T5 construct: endogenous in cells; host or cells: DM93 cells (SILAC), live-cell treatment
Procedure, shortened: as §1

Q9UJ68 = biological target: T6, Q9UJ68 (Homo sapiens, UniProt Q9UJ68)
T6 construct: endogenous in cells; host or cells: DM93 cells (SILAC)
Procedure, shortened: as §1

O60763 = biological target: T7, O60763 (Homo sapiens, UniProt O60763)
T7 construct: endogenous in cells; host or cells: DM93
Procedure, shortened: as §1

P62847 = biological target: T8, P62847 (Homo sapiens, UniProt P62847)
T8 construct: performing SuTEx compound screening directly in cells; endogenous in cells; host or cells: DM93 cells (SILAC)
Procedure, shortened: as §1

Q00341 = biological target: T9, Q00341 (Homo sapiens, UniProt Q00341)
T9 construct: performing SuTEx compound screening directly in cells; endogenous in cells; host or cells: DM93 cells (SILAC)
Procedure, shortened: as §1

Q13107 = biological target: T10, Q13107 (Homo sapiens, UniProt Q13107)
T10 construct: performing SuTEx compound screening directly in cells; endogenous in cells; host or cells: DM93 cells (SILAC), soluble fraction
Procedure, shortened: as §1

Q9UDY2 = biological target: T11, Q9UDY2 (Homo sapiens, UniProt Q9UDY2)
T11 construct: endogenous in cells; host or cells: DM93 cells (SILAC)
Procedure, shortened: as §1

P14550 = biological target: T12, P14550 (Homo sapiens, UniProt P14550)
T12 construct: endogenous in cells; host or cells: DM93 cells (SILAC)
Procedure, shortened: as §1

P09960 = biological target: T13, P09960 (Homo sapiens, UniProt P09960)
T13 construct: endogenous in cells; host or cells: DM93 cells (SILAC)
Procedure, shortened: as §1

P35269 = biological target: T14, P35269 (Homo sapiens, UniProt P35269)
T14 construct: Probe-modified proteins from the soluble fraction were conjugated to a desthiobiotin-azide tag; endogenous in cells; host or cells: DM93 (SILAC)
Procedure, shortened: as §1

Q13011 = biological target: T15, Q13011 (Homo sapiens, UniProt Q13011)
T15 construct: performing SuTEx compound screening directly in cells; endogenous in cells; host or cells: DM93 cells (SILAC)
Procedure, shortened: as §1

P06400 = biological target: T16, P06400 (Homo sapiens, UniProt P06400)
T16 construct: endogenous in cells; host or cells: DM93 cells (SILAC)
Procedure, shortened: as §1

Q09028 = biological target: T17, Q09028 (Homo sapiens, UniProt Q09028)
T17 construct: performing SuTEx compound screening directly in cells; endogenous in cells; host or cells: DM93 cells (SILAC)
Procedure, shortened: as §1

Q14247 = biological target: T18, Q14247 (Homo sapiens, UniProt Q14247)
T18 construct: performing SuTEx compound screening directly in cells; endogenous in cells; host or cells: DM93 cells (SILAC), soluble fraction
Procedure, shortened: as §1

T13 sequence (P09960 whole entry): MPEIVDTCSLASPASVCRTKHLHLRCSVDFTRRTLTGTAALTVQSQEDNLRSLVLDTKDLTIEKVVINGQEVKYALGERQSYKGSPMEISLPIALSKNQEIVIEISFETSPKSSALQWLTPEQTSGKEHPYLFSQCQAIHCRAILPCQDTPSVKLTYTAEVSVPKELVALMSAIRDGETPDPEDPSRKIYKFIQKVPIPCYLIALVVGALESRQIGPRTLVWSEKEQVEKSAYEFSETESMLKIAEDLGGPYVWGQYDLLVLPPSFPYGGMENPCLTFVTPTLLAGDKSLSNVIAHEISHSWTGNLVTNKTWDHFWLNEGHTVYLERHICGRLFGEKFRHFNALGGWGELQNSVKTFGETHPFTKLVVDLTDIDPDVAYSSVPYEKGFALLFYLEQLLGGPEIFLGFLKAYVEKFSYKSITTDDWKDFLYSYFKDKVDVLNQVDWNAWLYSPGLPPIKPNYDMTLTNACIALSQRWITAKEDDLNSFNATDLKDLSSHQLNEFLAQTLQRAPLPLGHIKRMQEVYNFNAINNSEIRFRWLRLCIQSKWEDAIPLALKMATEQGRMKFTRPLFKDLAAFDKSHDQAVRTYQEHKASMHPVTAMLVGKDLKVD
T5 sequence (Q92900 whole entry): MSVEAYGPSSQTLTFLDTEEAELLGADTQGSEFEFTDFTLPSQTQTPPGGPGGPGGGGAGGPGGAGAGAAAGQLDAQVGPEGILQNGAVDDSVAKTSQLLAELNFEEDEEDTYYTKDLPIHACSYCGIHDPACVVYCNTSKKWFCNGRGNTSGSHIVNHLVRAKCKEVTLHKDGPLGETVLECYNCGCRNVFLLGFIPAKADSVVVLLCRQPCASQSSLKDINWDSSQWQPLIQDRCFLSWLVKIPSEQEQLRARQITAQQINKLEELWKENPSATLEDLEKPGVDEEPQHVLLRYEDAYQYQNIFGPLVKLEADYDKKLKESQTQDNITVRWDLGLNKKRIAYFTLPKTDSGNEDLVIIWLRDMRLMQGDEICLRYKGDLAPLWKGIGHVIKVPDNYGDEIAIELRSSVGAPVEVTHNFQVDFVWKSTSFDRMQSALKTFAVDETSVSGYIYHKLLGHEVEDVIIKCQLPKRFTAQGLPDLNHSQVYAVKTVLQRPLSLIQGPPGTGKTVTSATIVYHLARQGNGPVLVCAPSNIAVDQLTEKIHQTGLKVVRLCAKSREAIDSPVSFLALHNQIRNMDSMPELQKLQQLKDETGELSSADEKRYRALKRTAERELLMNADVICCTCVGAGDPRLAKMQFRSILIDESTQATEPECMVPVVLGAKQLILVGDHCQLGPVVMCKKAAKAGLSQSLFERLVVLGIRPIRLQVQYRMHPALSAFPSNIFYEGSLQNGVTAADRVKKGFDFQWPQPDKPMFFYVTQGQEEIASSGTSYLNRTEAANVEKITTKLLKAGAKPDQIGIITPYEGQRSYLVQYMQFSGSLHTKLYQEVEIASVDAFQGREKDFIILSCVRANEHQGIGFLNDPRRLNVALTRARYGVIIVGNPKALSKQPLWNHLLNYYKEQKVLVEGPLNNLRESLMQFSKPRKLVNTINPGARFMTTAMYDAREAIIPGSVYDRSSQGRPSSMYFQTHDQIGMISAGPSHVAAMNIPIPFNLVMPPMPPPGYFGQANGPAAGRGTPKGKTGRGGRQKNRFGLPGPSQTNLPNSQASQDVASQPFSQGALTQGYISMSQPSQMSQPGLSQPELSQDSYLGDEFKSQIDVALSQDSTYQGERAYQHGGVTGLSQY
T2 sequence (Q01082 whole entry): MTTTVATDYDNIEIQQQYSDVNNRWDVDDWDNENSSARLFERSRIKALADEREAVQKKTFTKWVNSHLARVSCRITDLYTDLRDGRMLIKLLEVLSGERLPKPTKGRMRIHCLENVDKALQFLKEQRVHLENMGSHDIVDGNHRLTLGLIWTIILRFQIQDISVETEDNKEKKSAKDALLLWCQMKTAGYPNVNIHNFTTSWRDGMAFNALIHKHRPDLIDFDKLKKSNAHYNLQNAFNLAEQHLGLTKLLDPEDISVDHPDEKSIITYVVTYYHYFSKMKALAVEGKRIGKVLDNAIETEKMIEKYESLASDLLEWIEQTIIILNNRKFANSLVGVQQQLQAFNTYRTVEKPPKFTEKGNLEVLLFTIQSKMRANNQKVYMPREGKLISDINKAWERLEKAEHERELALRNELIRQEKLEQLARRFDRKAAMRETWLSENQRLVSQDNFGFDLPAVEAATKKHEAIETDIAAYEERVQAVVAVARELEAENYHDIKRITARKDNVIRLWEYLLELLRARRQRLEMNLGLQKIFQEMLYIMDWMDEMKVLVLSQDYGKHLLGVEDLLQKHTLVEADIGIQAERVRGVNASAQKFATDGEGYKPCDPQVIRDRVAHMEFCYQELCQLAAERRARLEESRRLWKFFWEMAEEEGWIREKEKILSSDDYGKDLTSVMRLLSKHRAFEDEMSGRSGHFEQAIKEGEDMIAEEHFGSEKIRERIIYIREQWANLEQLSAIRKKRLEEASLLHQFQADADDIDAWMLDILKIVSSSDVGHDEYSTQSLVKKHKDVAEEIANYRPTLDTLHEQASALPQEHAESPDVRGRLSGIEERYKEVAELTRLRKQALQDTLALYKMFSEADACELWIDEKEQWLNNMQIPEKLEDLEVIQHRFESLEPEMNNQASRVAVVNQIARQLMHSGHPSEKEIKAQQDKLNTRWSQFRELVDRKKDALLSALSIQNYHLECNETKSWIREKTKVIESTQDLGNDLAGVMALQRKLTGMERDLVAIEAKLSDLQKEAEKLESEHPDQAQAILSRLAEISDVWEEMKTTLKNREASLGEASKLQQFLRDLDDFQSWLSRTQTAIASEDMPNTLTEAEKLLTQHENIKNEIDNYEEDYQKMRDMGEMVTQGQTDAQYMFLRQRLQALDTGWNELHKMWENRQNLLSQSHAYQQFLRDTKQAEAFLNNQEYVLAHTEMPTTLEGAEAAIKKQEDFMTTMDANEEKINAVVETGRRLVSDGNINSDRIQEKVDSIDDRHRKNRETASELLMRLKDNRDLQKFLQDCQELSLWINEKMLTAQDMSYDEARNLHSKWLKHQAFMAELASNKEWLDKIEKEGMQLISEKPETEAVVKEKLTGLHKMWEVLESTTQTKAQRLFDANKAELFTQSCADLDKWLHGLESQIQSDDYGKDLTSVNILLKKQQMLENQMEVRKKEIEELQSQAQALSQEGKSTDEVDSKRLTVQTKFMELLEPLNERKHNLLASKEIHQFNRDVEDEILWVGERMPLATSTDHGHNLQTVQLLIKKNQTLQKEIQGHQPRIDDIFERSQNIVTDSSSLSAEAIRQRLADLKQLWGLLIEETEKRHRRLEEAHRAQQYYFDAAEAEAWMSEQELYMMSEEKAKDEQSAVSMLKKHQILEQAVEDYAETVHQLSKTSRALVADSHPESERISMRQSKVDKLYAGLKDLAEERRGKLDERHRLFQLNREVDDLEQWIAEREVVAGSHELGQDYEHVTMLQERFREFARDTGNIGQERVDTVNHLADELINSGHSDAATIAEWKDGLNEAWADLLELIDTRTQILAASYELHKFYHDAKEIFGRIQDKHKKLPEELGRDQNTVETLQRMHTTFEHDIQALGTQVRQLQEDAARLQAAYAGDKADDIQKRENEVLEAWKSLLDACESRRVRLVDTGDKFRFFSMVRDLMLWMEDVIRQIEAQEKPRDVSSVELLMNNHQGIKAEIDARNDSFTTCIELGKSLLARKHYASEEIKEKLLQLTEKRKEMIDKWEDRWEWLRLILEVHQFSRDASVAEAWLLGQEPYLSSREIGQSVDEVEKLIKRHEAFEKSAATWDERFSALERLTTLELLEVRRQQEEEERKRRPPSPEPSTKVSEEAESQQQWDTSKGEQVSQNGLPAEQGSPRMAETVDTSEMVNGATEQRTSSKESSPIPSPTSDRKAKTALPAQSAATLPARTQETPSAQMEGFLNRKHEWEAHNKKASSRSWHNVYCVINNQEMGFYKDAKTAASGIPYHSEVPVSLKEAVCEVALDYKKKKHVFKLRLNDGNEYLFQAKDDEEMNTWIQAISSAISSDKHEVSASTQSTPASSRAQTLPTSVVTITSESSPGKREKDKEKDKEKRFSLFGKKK
T15 sequence (Q13011 34-328): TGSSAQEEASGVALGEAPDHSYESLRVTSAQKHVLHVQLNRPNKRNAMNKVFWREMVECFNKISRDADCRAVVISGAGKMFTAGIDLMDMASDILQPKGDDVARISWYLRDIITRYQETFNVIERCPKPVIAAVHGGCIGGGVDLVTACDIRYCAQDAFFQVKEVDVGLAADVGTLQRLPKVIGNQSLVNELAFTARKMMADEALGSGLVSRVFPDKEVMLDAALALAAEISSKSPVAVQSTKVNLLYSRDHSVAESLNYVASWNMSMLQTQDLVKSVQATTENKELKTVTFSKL
T14 sequence (P35269 whole entry): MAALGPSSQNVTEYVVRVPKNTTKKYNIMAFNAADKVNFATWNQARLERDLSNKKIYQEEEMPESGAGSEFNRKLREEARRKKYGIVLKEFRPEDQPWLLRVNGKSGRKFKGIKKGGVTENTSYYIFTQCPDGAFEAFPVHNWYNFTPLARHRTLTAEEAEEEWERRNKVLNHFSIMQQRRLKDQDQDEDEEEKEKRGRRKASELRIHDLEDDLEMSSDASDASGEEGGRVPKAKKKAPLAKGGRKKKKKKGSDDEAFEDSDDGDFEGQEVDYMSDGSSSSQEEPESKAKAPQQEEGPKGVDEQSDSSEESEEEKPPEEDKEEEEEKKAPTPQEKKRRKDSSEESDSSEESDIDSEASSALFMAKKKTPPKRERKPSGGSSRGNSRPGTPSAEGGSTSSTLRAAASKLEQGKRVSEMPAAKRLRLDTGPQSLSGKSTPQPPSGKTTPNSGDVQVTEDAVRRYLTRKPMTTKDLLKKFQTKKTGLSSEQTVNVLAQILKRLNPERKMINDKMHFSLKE
T1 sequence (P63241 whole entry): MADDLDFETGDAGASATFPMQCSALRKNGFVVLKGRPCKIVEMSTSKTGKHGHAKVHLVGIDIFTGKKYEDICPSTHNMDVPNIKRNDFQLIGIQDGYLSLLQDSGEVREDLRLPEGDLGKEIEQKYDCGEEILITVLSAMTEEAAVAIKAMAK

O=C(NC1CC1)c1ccc(S(=O)(=O)n2cncn2)cc1 [HHS-0101, 4-((1H-1,2,4-triazol-1-yl)sulfonyl)-N-cyclopropylbenzamide]
liganded tyrosine site 127 (P63241): HHS0101.Y|HHS0201.Y|HHS0701.Y (tyrosine sites that showed >80% reductions (SR >5) in probe labeling in cells treated with compounds (liganded sites)) | liganded tyrosine site 777 (Q01082): HHS0101.Y|HHS0201.Y|HHS0401.Y (tyrosine sites that showed >80% reductions (SR >5) in probe labeling in cells treated with compounds (liganded sites)) | liganded tyrosine site 137 (Q13033): HHS0101.Y|HHS0401.Y (tyrosine sites that showed >80% reductions (SR >5) in probe labeling in cells treated with compounds (liganded sites)) | liganded tyrosine site 180 (Q13151): HHS0101.Y (tyrosine sites that showed >80% reductions (SR >5) in probe labeling in cells treated with compounds (liganded sites)) | liganded tyrosine site 518 (Q92900): HHS0101.Y|HHS0201.Y|HHS0401.Y|HHS0701.Y (tyrosine sites that showed >80% reductions (SR >5) in probe labeling in cells treated with compounds (liganded sites)) | liganded tyrosine site 946 (Q92900): HHS0101.Y (tyrosine sites that showed >80% reductions (SR >5) in probe labeling in cells treated with compounds (liganded sites)) | liganded tyrosine site 211 (Q9UJ68): HHS0101.Y|HHS0401.Y|HHS0701.Y (tyrosine sites that showed >80% reductions (SR >5) in probe labeling in cells treated with compounds (liganded sites))

O=C(NCC1CC1)c1ccc(S(=O)(=O)n2cncn2)cc1 [HHS-0201, 4-((1H-1,2,4-triazol-1-yl)sulfonyl)-N-(cyclopropylmethyl)benzamide]
liganded tyrosine site 718 (O60763): HHS0201.Y (tyrosine sites that showed >80% reductions (SR >5) in probe labeling in cells treated with compounds (liganded sites)) | liganded tyrosine site 81 (P62847): HHS0201.Y (tyrosine sites that showed >80% reductions (SR >5) in probe labeling in cells treated with compounds (liganded sites)) | liganded tyrosine site 582 (Q00341): HHS0201.Y (tyrosine sites that showed >80% reductions (SR >5) in probe labeling in cells treated with compounds (liganded sites)) | liganded tyrosine site 192 (Q13107): HHS0201.Y|HHS0301.Y (tyrosine sites that showed >80% reductions (SR >5) in probe labeling in cells treated with compounds (liganded sites)) | liganded tyrosine site 423 (Q9UDY2): HHS0201.Y|HHS0301.Y (tyrosine sites that showed >80% reductions (SR >5) in probe labeling in cells treated with compounds (liganded sites))

O=C(NCc1ccccc1)c1ccc(S(=O)(=O)n2cncn2)cc1 [HHS-0401, 4-((1H-1,2,4-triazol-1-yl)sulfonyl)-N-benzylbenzamide]
liganded tyrosine site 135 (P14550): HHS0401.Y (tyrosine sites that showed >80% reductions (SR >5) in probe labeling in cells treated with compounds (liganded sites))

O=C(c1ccc(S(=O)(=O)n2cncn2)cc1)N1CCC(c2ccccc2)CC1 [HHS-0701, (4-((1H-1,2,4-triazol-1-yl)sulfonyl)phenyl)(4-phenylpiperidin-1-yl)methanone]
liganded tyrosine site 379 (P09960): HHS0701.Y (tyrosine sites that showed >80% reductions (SR >5) in probe labeling in cells treated with compounds (liganded sites)) | liganded tyrosine site 384 (P09960): HHS0701.Y (tyrosine sites that showed >80% reductions (SR >5) in probe labeling in cells treated with compounds (liganded sites)) | liganded tyrosine site 124 (P35269): HHS0701.Y (tyrosine sites that showed >80% reductions (SR >5) in probe labeling in cells treated with compounds (liganded sites)) | liganded tyrosine site 149 (Q13011): HHS0701.Y (tyrosine sites that showed >80% reductions (SR >5) in probe labeling in cells treated with compounds (liganded sites))

O=C(NC1CCCCC1)c1ccc(S(=O)(=O)n2cncn2)cc1 [HHS-0301, 4-((1H-1,2,4-triazol-1-yl)sulfonyl)-N-cyclohexylbenzamide]
liganded tyrosine site 91 (P06400): HHS0301.Y|HHS0701.Y (tyrosine sites that showed >80% reductions (SR >5) in probe labeling in cells treated with compounds (liganded sites)) | liganded tyrosine site 154 (Q09028): HHS0301.Y|HHS0701.Y (tyrosine sites that showed >80% reductions (SR >5) in probe labeling in cells treated with compounds (liganded sites)) | liganded tyrosine site 154 (Q14247): HHS0301.Y|HHS0401.Y (tyrosine sites that showed >80% reductions (SR >5) in probe labeling in cells treated with compounds (liganded sites))
